From ChEMBL document CHEMBL3351519, “Synthetic studies on mitotic kinesin Eg5 inhibitors: synthesis and structure-activity relationships of novel 2,4,5-substituted-1,3,4-thiadiazoline derivatives” (Bioorg Med Chem Lett, 2014) come the findings set out here.

Molecules are shown by their SMILES. Some results are limits rather than exact numbers.

The target in data set [1] is T1, Kinesin-like protein KIF11 (Homo sapiens, UniProt P52732).
T1 sequence (P52732 whole entry): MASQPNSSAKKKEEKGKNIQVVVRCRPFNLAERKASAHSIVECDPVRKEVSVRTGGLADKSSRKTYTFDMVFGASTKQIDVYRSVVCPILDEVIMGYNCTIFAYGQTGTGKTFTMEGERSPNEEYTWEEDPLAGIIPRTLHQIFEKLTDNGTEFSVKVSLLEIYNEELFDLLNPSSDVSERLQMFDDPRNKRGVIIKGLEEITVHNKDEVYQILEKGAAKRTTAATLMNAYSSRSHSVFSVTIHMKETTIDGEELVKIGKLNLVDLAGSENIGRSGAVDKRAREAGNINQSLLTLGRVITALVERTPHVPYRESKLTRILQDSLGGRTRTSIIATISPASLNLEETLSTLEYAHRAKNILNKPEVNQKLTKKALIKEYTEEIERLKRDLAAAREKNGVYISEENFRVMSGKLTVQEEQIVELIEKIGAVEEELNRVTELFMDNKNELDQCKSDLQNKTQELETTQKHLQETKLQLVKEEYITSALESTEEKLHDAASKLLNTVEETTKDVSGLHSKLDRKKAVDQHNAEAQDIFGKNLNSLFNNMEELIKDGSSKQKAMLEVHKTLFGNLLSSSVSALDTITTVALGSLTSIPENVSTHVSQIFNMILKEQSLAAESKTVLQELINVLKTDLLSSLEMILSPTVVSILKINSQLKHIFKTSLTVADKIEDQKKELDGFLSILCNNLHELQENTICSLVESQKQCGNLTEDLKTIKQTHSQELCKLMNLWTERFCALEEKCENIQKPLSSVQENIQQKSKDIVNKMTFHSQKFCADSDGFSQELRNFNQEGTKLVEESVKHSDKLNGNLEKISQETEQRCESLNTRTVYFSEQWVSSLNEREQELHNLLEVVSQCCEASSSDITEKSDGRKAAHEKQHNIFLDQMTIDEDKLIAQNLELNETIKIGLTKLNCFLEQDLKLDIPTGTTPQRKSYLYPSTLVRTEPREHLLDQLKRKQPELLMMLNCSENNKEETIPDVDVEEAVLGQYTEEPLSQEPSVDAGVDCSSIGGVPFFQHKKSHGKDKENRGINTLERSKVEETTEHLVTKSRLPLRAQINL
In words: Inhibition of Eg5 (unknown origin).

The subject of a further data set is HCT-116. In words: Induction of mitotic accumulation in human HCT116 cells Hoechst 33342 staining based by fluorescence microscopy. In kind it is functional.
A short description of data set [2]: Intrinsic clearance in mouse liver microsomes. It counts as ADME. The settings on record: read-out: CLH (converted). For orientation: Microsomes from liver hold many membrane-bound enzymes, among them those of drug oxidation.
Data set [3] can be described thus: Growth inhibition of human HCT116 cells. It counts as functional. The following applies: HCT-116.
In data set [4] the test system is Mus musculus. In words: Toxicity in human A2780 cells xenografted SCID mouse assessed as induction of body weight loss at 100 mg/kg, po bid for 5 days. It counts as organism-based. Also on record: dose 100 mg/kg, route oral. The settings on record: in vivo, 120 h.
For data set [5], the system named is A2780. The experiment in a line: Antitumor activity against human A2780 cells xenografted in SCID mouse assessed as tumor volume ratio at 100 mg/kg, po bid for 5 days relative to untreated control. It counts as functional. In general terms: A xenograft is tissue or cells of one species grown in another, often human tumour cells in immunodeficient mice.
Data set [6] relates to Mus musculus. In words: Toxicity in human A2780 cells xenografted SCID mouse assessed as mortality at 100 mg/kg, po bid for 5 days. In kind it is organism-based. Also on record: dose 100 mg/kg, route oral. The following applies: in vivo, 120 h.
In data set [7] the test system is A2780. In words: Antitumor activity against human A2780 cells xenografted in SCID mouse assessed as reduction in tumor volume dosed orally twice daily for 5 days relative to untreated control. It counts as functional, organism-based.
The test system of data set [8] is Mus musculus. The experiment in a line: Toxicity in human A2780 cells xenografted SCID mouse assessed as mortality at 10 mg/kg, po bid for 5 days. The settings on record: in vivo, 120 h. Details: dose 10 mg/kg, route oral. It counts as organism-based.
Data set [9] relates to A2780. The experiment in a line: Antitumor activity against human A2780 cells xenografted in SCID mouse assessed as tumor volume ratio at 10 mg/kg, po bid for 5 days relative to untreated control. It counts as functional.
Data set [10] relates to Mus musculus. In words: Toxicity in human A2780 cells xenografted SCID mouse assessed as induction of body weight loss at 2.5 mg/kg, po bid for 5 days. It counts as organism-based. Also on record: dose 2.5 mg/kg, route oral. The following applies: in vivo, 120 h.
Data set [11] concerns Mus musculus. In words: Toxicity in human A2780 cells xenografted SCID mouse assessed as induction of body weight loss at 10 mg/kg, po bid for 5 days. It counts as organism-based. The settings on record: in vivo, 120 h. Details: dose 10 mg/kg, route oral.
Data set [12] in a line: Oral absorption in mouse. In kind it is ADME, organism-based. The settings on record: in vivo.
Data set [13] is described as follows: Therapeutic index, ratio of MTD in human A2780 cells xenografted SCID mouse to ED50 for human A2780 cells xenografted in SCID mouse. It counts as cell-based. The settings on record: in vivo, read-out: TI.
The subject of data set [14] is A2780. The experiment in a line: Antitumor activity against human A2780 cells xenografted in SCID mouse assessed as tumor volume ratio at 2.5 mg/kg, po bid for 5 days relative to untreated control. It counts as functional.
Data set [15] deals with Mus musculus. In words: Toxicity in human A2780 cells xenografted SCID mouse assessed as mortality at 2.5 mg/kg, po bid for 5 days. The following applies: in vivo, 120 h. Details: dose 2.5 mg/kg, route oral. It counts as organism-based.
In data set [16] the test system is A2780. In words: Antitumor activity against human A2780 cells xenografted in SCID mouse assessed as tumor volume ratio at 0.625 mg/kg, po bid for 5 days relative to untreated control. In kind it is functional.
Data set [17] deals with A2780. In words: Antitumor activity against human A2780 cells xenografted in SCID mouse assessed as tumor volume ratio at 5 mg/kg, po bid for 5 days relative to untreated control. In kind it is functional.
For data set [18], the system named is Mus musculus. In words: Toxicity in human A2780 cells xenografted SCID mouse assessed as mortality at 0.625 mg/kg, po bid for 5 days. It counts as organism-based. Also on record: dose 0.625 mg/kg, route oral. The following applies: in vivo, 120 h.
Data set [19] deals with Mus musculus. The experiment in a line: Toxicity in human A2780 cells xenografted SCID mouse assessed as mortality at 5 mg/kg, po bid for 5 days. It counts as organism-based. Details: dose 5 mg/kg, route oral. The settings on record: in vivo, 120 h.
Data set [20] deals with Mus musculus. In words: Toxicity in human A2780 cells xenografted SCID mouse assessed as induction of body weight loss at 5 mg/kg, po bid for 5 days. In kind it is organism-based. Also on record: dose 5 mg/kg, route oral. The following applies: in vivo, 120 h.
In data set [21] the test system is Mus musculus. In words: Toxicity in human A2780 cells xenografted SCID mouse assessed as induction of body weight loss at 0.625 mg/kg, po bid for 5 days. In kind it is organism-based. Details: dose 0.625 mg/kg, route oral. The following applies: in vivo, 120 h.

A word on the IC50: it is the concentration that inhibits the measured activity by half. Read a low IC50 as greater potency in that assay. In [1], `CCC(=O)N1N=C(NC(=O)C(C)(C)C)SC1(CCNS(C)(=O)=O)c1ccccc1` (racemic) displayed an IC50 of 111 nM. This compound returned an MI20 with HCT-116 of 114 nmol/L. Besides, in data set [2], the CLint scaled was 14.8 mL/min/kg.

What is called GI50 is the concentration giving 50% growth inhibition. For `CC(C)(C)C(=O)NC1=NN(C(=O)C(C)(C)C)C(CCNS(C)(=O)=O)(c2ccccc2)S1` (stereo not given), it took 63 nM to inhibit growth in data set [3] by half (GI50). Besides, the IC50 in [1] worked out at 120 nM. The compound further registered an MI20 with HCT-116 of 71 nmol/L. Besides, the CLint scaled in data set [2] was 32.5 mL/min/kg.

In turn, `CC(C)C(=O)N1N=C(NC(=O)C(C)(C)C)SC1(CCNS(C)(=O)=O)c1ccccc1` (racemic) came in with an IC50 in data set [1] of 110 nM. In addition, in the data set on HCT-116, the MI20 came out at 114 nmol/L. In data set [2], the CLint scaled is 14.8 mL/min/kg.

`CCC(=O)NC1=NN(C(=O)CC)C(C)(c2ccccc2)S1` (stereo not given): in the data set with HCT-116, the MI20 stood at 1700 nmol/L.

As to `CC(=O)N1N=C(N)SC1(C)c1ccccc1` (stereo not given), in the data set on HCT-116, the MI20 is recorded as over 10000 nmol/L.

`CC(C)(C)C(=O)NC1=NN(C(=O)C(C)(C)C)C(CC#N)(c2ccccc2)S1` (stereo not given): in the data set on HCT-116, the MI20 is reported as over 10000 nmol/L.

In data set [3], `CC(=O)NC1=NN(C(C)=O)C(C)(c2ccccc2)S1` (stereo not given) showed a GI50 of 1000 nM. Also, the MI20 with HCT-116 was found to be 1100 nmol/L. Besides, the Activity entry in the data set with Mus musculus [4] and in the data set with Mus musculus [6] was “Non-toxic” each time. In the data set with A2780 [5], the T/C was found to be 0.18.

The compound `CC(C)C(=O)N1N=C(NC(=O)C(C)(C)C)SC1(CCNS(C)(=O)=O)c1ccccc1` (single isomer, unassigned; (+)) returned an MI20 with HCT-116 of over 10000 nmol/L.

For the compound `CCC(=O)N1N=C(NC(=O)C(C)(C)C)SC1(CCNS(C)(=O)=O)c1ccccc1` (stereo in doubt; (+)-12a), in the data set on HCT-116, the MI20 is reported as over 10000 nmol/L.

For the compound `CC(C)C(=O)NC1=NN(C(=O)C(C)C)C(C)(c2ccccc2)S1` (stereo not given), growth in [3] was halved (GI50) at 550 nM. Besides, the MI20 with HCT-116 is 460 nmol/L.

In [3], `CC(C)CC(=O)NC1=NN(C(=O)CC(C)C)C(C)(c2ccccc2)S1` (stereo not given) showed a 50% growth inhibitory concentration (GI50) of 190 nM. Also, the 50% inhibitory concentration (IC50) in [1] is 520 nM. The compound further gave an MI20 with HCT-116 of 170 nmol/L.

For `CC(=O)NCC1(c2ccccc2)SC(NC(=O)C(C)(C)C)=NN1C(=O)C(C)(C)C` (stereo not given), the MI20 in the data set with HCT-116 turned out to be 2200 nmol/L.

Turning to `CCC(=O)N1N=C(NC(=O)C(C)(C)C)SC1(CCNS(C)(=O)=O)c1ccccc1` (single isomer, unassigned; (-)) [listing 1 of 2 here], the TGI entry in the data set with A2780 [7] was “Dose-dependent effect”.

For the compound `CC(C)(C)C(=O)NC1=NN(C(=O)C(C)(C)C)C(CNS(C)(=O)=O)(c2ccccc2)S1` (stereo not given), in data set [3], the GI50 came to 17 nM. Besides, in data set [1], the IC50 was 44 nM. The compound also showed an MI20 with HCT-116 of 16 nmol/L.

For `CC(C)C(=O)N1N=C(NC(=O)C(C)(C)C)SC1(CCNS(C)(=O)=O)c1ccccc1` (single isomer, unassigned; (-)) [listing 1 of 2 here], the GI50 in data set [3] was 63 nM. Also, it took 48 nM to reach half-maximal inhibition in data set [1] (IC50). This compound had an MI20 with HCT-116 of 40 nmol/L. Moreover, the Activity result in the data set on Mus musculus [8], in the data set with Mus musculus [10], in the data set with Mus musculus [11] and in the data set with Mus musculus [15] was “Non-toxic” throughout. Besides, the values for the T/C in the data set on A2780 [9] and with A2780 [14] were 0.27 and 0.5, respectively. The Fa in data set [12] was determined as 62%. The selectivity ratio in [13] was 8.

The compound `CC(C)(C)C(=O)NC1=NN(C(=O)C(C)(C)C)C(CS(C)(=O)=O)(c2ccccc2)S1` (stereo not given) had an MI20 in the data set with HCT-116 of over 10000 nmol/L.

Take `CC1(c2ccccc2)SC(NC(=O)c2ccccc2)=NN1C(=O)c1ccccc1` (stereo not given): the MI20 in the data set on HCT-116 is over 10000 nmol/L.

With `COCC1(c2ccccc2)SC(NC(=O)C(C)(C)C)=NN1C(=O)C(C)(C)C` (stereo not given), the GI50 in [3] was found to be 560 nM. In the data set on HCT-116, this compound registered an MI20 of 430 nmol/L.

As for `CC(C)C(=O)N1N=C(NC(=O)C(C)(C)C)SC1(CCNS(C)(=O)=O)c1ccccc1` (single isomer, unassigned; (-)) [listing 2 of 2 here], the TGI entry in the data set on A2780 [7] is “Dose-dependent effect”.

Turning to `CCC(=O)N1N=C(NC(=O)C(C)(C)C)SC1(CCNS(C)(=O)=O)c1ccccc1` (single isomer, unassigned; (-)) [listing 2 of 2 here], the GI50 in data set [3] amounted to 560 nM. The compound also returned an IC50 in [1] of 64 nM. The compound further had an MI20 with HCT-116 of 55 nmol/L. Moreover, the T/C with A2780 [16] worked out at 0.5; in the data set with A2780 [17] it was 0.08. The Activity result in the data set on Mus musculus [18], in the data set with Mus musculus [19], with Mus musculus [20] and in the data set on Mus musculus [21] was “Non-toxic” throughout.
